# Data: PMC8749431 (mBio, 2022)
# What was measured:
# [1] = system: pseudotyped VSVs harboring SARS-CoV S (SARS-Spp); test: microbe, parasite or virus in culture; assay type: cell-based; settings: for EC50: Severe acute respiratory syndrome coronavirus
# [2] = system: pseudotyped VSVs harboring MERS-CoV S (MERS-Spp); assay type: cell-based
Compound,inhibition of SARS-Spp entry [1],inhibition of MERS-Spp entry [2],EC50 [1] [µM],EC50 ([1]; Huh-7) [µM],EC50 ([1]; MA104) [µM]
"CCN(CC)CCCC(C)Nc1ccnc2cc(Cl)ccc12 (stereo not shown) [Chloroquine, chloroquine]",inhibited,reduced,,,
"Cc1cc(-c2nc(CN3CCC(C(=O)NCCCN4C[C@H](C)C[C@H](C)C4)CC3)co2)ccc1F [Fluoxazolevir, fluoxazolevir]",,,1.46,1.75,6.49
CCOC(=O)[C@H]1O[C@@H]1C(=O)N[C@@H](CC(C)C)C(=O)NCCC(C)C [E-64d],inhibited,reduced,,,
"CN1CCN([C@@H](c2ccccc2)c2ccc(Cl)cc2)CC1 [(S)-CCZ, (S)-chlorcyclizine]",,,4.59,3.21,6.91
"CCN1CCN(C(c2ccc(Cl)cc2)c2ccc(Cl)cc2)CC1 [Dichlorcyclizine, dichlorcyclizine]",,,5.76,0.87,9.92
